Patent publication US20240307373A1, “METHODS OF USE AND COMPOSITIONS OF BISBENZYLISOQUINOLINES FOR THE TREATMENT OF MALIGNANCIES” (priority 2023, published 2024)
“And” between values parts separate entries of the source, which are not always exact repeats. Equal values may be shown once.

Legend:
[1] = tested on: human CML bone marrow-derived cells; assay: Colony forming cell (CFC) assay on CML patient bone marrow cells; conditions: colony number, methylcellulose-based medium, 14-16 days
Experimental: Clonogenic progenitors were set up using buman CML bone marrow-derived cells in the methylcellulose-based media formulation described above. Test articles were added to the medium to give final concentrations as described above. Standard cultures containing IMDM+10% FBS as well as solvent control cultures containing DMSO were also initiated. Following addition of the test compounds and cells, the tubes were vortexed to ensure equal distribution of compound and cells throughout the matrix. The cultures were set up in triplicate at 0.1×10^6 cells per culture (lot #BBM1000-E1110025705111110G4) for each control and each compound concentration. The cultures were placed in a humidified incubator (37° C., 5% CO2). Following 14-16 days in culture, the colonies were assessed and scored by trained personnel.
Human bone marrow light-density cells derived from CML patient bone marrow (Conversant Bio, Alabama), were stored in the gaseous phase of liquid nitrogen until required. On the day of the experiment, the cells were thawed rapidly, the contents of the vial were diluted in 10 mL of Iscove's Modified Dulbecco's Medium containing 10% fetal bovine serum (IMDM+10% FBS) and washed by centrifugation (approximately 1200 r.p.m. for 10 minutes, room temperature). The supernatant was discarded, and the cell pellets were resuspended in a known volume of IMDM+10% FBS. A cell count (3% glacial acetic acid) and viability assessment (trypan blue exclusion test) […] Tetrandrine (10 μM) for 14 days. After treatment, primary and secondary colonies were grown and analyzed by qPCR to determine BCR-ABL or ABL only cells.
Human erythroid (CFU-E and BFU-E) and myeloid (CFU-GM) colony enumeration were performed by trained personnel. In addition, the distribution of colony types as well as general colony and cellular morphology were analyzed. […] For statistical analysis, colony numbers in compound-treated cultures were compared to the solvent control cultures.

[2] = tested on: leukemic cells and leukemic stem cells; assay: BCR-ABL induced CML mouse model (bone marrow transplantation); assay type: in vivo, C57BL/6 mice
Description: The method is as follows: 20 C57BL/6 mice were used as donors for bone marrow transduction. They were primed by intravenous injection with 5-fluorouracil four days before collecting cells. Bone marrow cells were harvested from femurs and tibias. Bone marrow cells were infected with a retrovirus containing MSCV-BCR-ABL-IRES-GFP twice 60 recipient mice were lethally irradiated by two doses of 550cGy before bone marrow transplantation by intravenous injection with 500,000 cells/mouse.
In an in vivo model, the effectiveness of Tetrandrine was tested on CML stem cells. The objective of the study was to determine the survival of leukemic cells and leukemic stem cells in response to the treatment with Tetrandrine. After priming donor C57BL/6 (B6) mice with intravenous injections of 5-fluorouracil for four days, bone marrow cells were harvested from femurs and tibia, then transfected twice with retrovirus containing MSCV-BCR-ABL-IRES-GFP. Recipient mice were lethally irradiated by two doses of 550 cGy before bone marrow transplantation by intravenous injection with 5×10^5 cells/mouse. Blood from recipient mice was tested for disease induction one week after transduction by FACS analysis for GFP (FIG. 7A). […] Treatments started on day 8 after bone marrow transplantation (FIG. 7B).

[3] = target: calmodulin (CaM) (Homo sapiens, UniProt P0DP23); conditions: Ma 2013; cited from earlier work
[4] = tested on: HCT116 cells; conditions: cited from earlier work
[5] = tested on: human breast, colon carcinoma, and hepatoma cell lines; conditions: read-out: IC50 range; cited from earlier work
[6] = tested on: human CML bone marrow-derived cells; assay: Replating assay (secondary clonal growth of plucked CFU-GM colonies); assay type: cell-based
Experimental: Following enumeration of the erythroid and myeloid progenitors, individual CFU-GM colonies were plucked from the matrix and diluted in 20 μL of IMDM+10% FBS. The colony was dispersed in this medium by gentle pipetting. This cellular mixture was then added to a well of a 96 well plate containing 180 μL of the ColonyGel medium described above. […] Both the number of wells which supported clonal growth as well as colony number per well were recorded.

[7] = target: P-glycoprotein (P-gp) (Homo sapiens, UniProt P08183); conditions: cited from earlier work
[8] = tested on: bcr-abl transcripts; assay: qPCR assay for bcr-abl and abl transcripts in primary and secondary colonies; assay type: cell-based, human; conditions: 10 μM, number of colonies
Experimental: After 14-16 days in culture, individual colonies were plucked from the solvent control and tetrandrine at 10 μM test condition into 75 μL of buffer RLT (Qiagen). Secondary replated colonies were collected and washed with 2 mL of 1× PBS, frozen at −80° C. and then lysed with 75 μL of buffer RLT (Qiagen). RNA was isolated using the Rneasy Micro kit according to the manufacture's instructions. Because the cell numbers in each colony were low, 20 ng of carrier RNA was included in each reaction to promote a better RNA yield. After elution, the entire isolation was subjected to a cDNA conversion using the high-capacity cDNA conversion kit (Life Technologies).
Using cDNA derived from both primary and secondary replated colonies, qPCR assay was used to determine whether colonies were positive for ber-abl transcripts. Primers and probes were designed based on the publication from Luthra, et.al. and are designed to anneal to ber-abl (target) and abl (endogenous control) cDNA. Each target was assayed in duplicated in a 20 μL reaction volume. Samples were denatured at 95° C. for 10 min and then amplified for 40 rounds of 95° C. for 15 s and 60° C. for 60 s.
To determine whether a colony was normal (bcr-abl negative and abl positive) or diseased (bcr-abl and abl positive), a TaqMan®-based qPCR test was used. In order to score the colonies positive or negative, the following scoring strategy was performed. All colonies were assayed in duplicate for each target. If a singleton reaction yielded a Ct then the reaction scored a 1. If no Ct was recorded, a score of 0 was given. From here, we used a logic test to score the colonies into four different categories: bcr-abl and abl, abl only, bcr-abl only or both negative. In order to be placed in a category, a colony must score a 1 in both reactions. However, if a colony only scored a 1 for one out of the two reactions, this colony was removed from the analysis. If a colony scored a 1 for each reaction (both bcr-abl and abl) the colony was placed into the ber-abl and abl category, signifying it as a diseased colony. Alternatively, if a colony scored a 1 in only both of the bcr-abl reactions or a 1 in only both the abl reactions, the colony was placed in the bcr-abl only or abl only category, respectively. If the colony scored a 0 for both targets (bcr-abl and abl) then the colony was placed in the both negative category.

[9] = target: T1, CAMKII gamma (Homo sapiens, UniProt Q13555); assay: CAMKII gamma kinase activity (ADP Glo); assay type: biochemical
T1 construct: purchased Promega V3531
Experimental: An enzymatic study was conducted to evaluate the inhibition of CAMKII gamma by ES-3000 (Tetrandrine). CAMKII gamma kinase activity was measured using […] purchased from Promega following the Promega protocol. CAMKII enzyme system purchased from Promega (V3531). ADP Glo was used for detection. Assay optimized for linearity of protein and time. Conditions for inhibitor screening 25 ng CAMKII, 20 min. incubations, inhibitor or DMSO (5%) at RT in 20 uL total volume. Inhibitors, ATP (10 or 50 uM), substrates and buffer added to tubes and reactions started with enzyme. […] Reactions terminated at 20 min. by adding ADP Glo reaction following manufactures instructions. All reactions were done in duplicate. Calculations of percent (%) inhibition determined by dividing the mean activity at each condition by the mean of the DMSO control times 100.

[10] = tested on: β-catenin; assay: β-catenin level in K562 cell extracts by western blot; assay type: cell-based, human
Experimental: Levels of β-catenin and β-actin proteins in untreated and tetrandrine-treated K562 cell lines by Western blot.
Antibodies for Western Blot analysis against β-catenin and β-actin were purchased from Santa Cruz Biotechnology (Santa Cruz, CA) Protein lysates were prepared by lysing cells in RIPA buffer and immunoprecipitation.
Briefly, the method to quantitate β-catenin protein by western blot was as follows: Extracts of K562 cells (untreated and treated with various concentrations of tetrandrine) were concentrated to 0.4 ml using Centricon-3 column to yield a protein concentration of approximately 2 mg/ml. Samples were mixed with 5X Laemmli buffer and loaded on 8-16% Tris-Glycine gradient gel, then polyacrylamide gel electrophoresis (PAGE) was run at 85 volts for 100 minutes at 6° C. and proteins were transferred on PVDF membrane at 70 Volts for 85 minutes at 8° C. Membrane was blocked with 5% milk in Tris-buffered Saline containing 0.1% TW-20 (TBST). Membrane was incubated with primary antibody for 18 hours at 4° C. followed by 3 washes, 5 minutes each, with TBST and incubated with secondary antibody in TBST for 2 hours at 25° C. […] Protein bands in WB images were quantitated using Molecular Imaging software pack MIS-4.0 software and tabulated in Excel spreadsheet.

[11] = target: hERG (Homo sapiens, UniProt Q12809); assay: hERG inhibition, IonWorks HT electrophysiology in CHO cells stably transfected with hERG
[12] = Tetrandrine 150 mg/kg orally 1×/day versus Imatinib 100 mg/kg 2×/day, treatment from day 8 after bone marrow transplantation

T1 sequence (Q13555 whole entry): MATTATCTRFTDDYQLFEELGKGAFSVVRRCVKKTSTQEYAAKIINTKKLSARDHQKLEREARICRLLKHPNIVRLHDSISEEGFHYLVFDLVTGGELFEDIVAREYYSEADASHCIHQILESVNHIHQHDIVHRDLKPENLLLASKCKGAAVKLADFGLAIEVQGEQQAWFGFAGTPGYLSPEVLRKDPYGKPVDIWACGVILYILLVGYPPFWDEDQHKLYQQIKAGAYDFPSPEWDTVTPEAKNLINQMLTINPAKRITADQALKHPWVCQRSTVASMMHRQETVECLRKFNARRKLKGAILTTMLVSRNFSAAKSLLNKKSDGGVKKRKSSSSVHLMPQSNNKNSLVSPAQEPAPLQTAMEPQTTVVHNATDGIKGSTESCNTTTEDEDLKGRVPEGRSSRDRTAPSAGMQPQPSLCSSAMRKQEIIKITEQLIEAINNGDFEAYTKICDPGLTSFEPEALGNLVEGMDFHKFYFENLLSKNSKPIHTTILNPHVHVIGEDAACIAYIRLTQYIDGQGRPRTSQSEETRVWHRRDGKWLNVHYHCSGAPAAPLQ
P-glycoprotein (P-gp), sequence (P08183 whole entry): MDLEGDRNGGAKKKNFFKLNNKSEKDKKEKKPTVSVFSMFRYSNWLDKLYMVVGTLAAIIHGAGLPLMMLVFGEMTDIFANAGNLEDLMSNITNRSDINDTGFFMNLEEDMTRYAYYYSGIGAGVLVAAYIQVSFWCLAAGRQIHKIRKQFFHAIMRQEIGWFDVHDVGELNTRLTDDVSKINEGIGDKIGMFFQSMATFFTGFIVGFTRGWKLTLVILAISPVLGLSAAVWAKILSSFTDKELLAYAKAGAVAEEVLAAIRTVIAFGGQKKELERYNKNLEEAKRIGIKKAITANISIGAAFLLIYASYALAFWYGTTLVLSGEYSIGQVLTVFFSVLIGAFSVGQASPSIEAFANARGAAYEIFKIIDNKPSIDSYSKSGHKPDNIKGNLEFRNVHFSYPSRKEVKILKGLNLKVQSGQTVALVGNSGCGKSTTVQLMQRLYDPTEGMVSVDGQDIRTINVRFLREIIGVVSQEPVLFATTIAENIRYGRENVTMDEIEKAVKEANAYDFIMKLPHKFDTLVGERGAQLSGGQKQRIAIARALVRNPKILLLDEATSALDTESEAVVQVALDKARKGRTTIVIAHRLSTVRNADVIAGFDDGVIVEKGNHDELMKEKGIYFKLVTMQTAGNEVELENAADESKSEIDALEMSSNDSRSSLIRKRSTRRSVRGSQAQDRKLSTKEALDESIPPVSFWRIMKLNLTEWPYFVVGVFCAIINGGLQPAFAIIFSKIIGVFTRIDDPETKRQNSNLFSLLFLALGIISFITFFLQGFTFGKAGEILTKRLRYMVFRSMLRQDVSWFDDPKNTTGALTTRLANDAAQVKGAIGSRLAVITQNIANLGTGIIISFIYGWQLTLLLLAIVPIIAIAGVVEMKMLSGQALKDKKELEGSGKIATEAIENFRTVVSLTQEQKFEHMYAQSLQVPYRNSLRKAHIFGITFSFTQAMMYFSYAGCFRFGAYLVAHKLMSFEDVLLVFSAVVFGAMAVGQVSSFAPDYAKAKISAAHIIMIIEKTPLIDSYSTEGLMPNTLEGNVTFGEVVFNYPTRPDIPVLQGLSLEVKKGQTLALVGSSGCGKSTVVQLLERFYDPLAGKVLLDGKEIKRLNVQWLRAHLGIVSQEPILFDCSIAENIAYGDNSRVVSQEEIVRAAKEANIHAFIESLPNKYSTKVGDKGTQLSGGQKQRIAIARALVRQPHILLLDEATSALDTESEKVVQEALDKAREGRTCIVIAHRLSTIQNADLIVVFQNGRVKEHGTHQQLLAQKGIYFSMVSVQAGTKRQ
hERG, sequence (Q12809 whole entry): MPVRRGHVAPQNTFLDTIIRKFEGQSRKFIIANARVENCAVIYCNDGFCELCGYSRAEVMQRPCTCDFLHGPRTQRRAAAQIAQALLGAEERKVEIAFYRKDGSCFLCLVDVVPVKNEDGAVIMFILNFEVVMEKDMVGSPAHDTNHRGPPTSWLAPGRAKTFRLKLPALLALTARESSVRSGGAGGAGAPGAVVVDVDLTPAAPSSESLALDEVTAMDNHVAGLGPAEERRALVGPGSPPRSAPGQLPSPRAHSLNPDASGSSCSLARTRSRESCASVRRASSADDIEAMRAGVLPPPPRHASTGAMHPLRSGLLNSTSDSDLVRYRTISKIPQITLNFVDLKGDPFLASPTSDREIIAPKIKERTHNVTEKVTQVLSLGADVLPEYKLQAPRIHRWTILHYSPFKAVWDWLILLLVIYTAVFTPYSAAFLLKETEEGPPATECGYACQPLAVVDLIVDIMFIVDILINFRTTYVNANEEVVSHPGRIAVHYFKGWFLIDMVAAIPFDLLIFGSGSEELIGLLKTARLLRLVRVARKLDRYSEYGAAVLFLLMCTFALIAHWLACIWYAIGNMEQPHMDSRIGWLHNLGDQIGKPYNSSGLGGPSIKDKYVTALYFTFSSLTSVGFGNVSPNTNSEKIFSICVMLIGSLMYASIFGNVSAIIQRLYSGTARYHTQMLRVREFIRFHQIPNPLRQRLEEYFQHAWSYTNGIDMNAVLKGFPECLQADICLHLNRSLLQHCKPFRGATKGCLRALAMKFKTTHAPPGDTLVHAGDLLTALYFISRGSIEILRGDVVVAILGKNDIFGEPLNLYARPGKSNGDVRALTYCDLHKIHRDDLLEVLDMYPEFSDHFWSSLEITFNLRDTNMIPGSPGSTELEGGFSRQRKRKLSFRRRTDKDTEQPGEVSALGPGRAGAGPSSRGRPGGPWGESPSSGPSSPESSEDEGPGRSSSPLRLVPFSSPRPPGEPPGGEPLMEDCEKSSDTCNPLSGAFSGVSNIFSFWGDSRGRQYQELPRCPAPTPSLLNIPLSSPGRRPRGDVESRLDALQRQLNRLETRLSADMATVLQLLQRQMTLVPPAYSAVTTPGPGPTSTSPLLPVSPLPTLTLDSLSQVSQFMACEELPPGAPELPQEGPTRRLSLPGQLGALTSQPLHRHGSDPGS

6,6′,7,12-tetramethoxy-2,2′-dimethyl-berbaman [ES-3000]
BFU-E ([1]; 0.1 μM): 22 ± 4 | CFU-E ([1]; 0.1 μM): 11 ± 1 | CFU-GM ([1]; 0.1 μM): 55 ± 5 | Total Erythroid ([1]; 0.1 μM): 33 ± 3 | BFU-E ([1]; 1 μM): 22 ± 4 | CFU-E ([1]; 1 μM): 10 ± 2 | CFU-GM ([1]; 1 μM): 54 ± 2 | Total Erythroid ([1]; 1 μM): 33 ± 3 | BFU-E ([1]; 3 μM): 14 ± 3 | CFU-E ([1]; 3 μM): 9 ± 2 | CFU-GM ([1]; 3 μM): 52 ± 5 | Total Erythroid ([1]; 3 μM): 23 ± 2 | CFU-GM ([1]; 10 μM): 26 ± 2 | spleen weight ([2]; Tetrandrine 150 mg/kg in 0.1N HCl, 1 time per day): reduces spleen weight | development of circulating leukemic cells [2, 12]: superior to Imatinib | development of leukemic stem cells [2, 12]: superior to Imatinib | binding to calmodulin (CaM) [3]: bind competitively to calmodulin | anticancer activity in combination with 5-FU ([4]; HCT116 (He 2011)): synergistic anticancer activity with 5-FU | migration and invasion capabilities ([4]; HCT116 cells (He 2011)): reduced migration and invasion capabilities | IC50 [5]: 1.5 to 10.4 µM | Repeating Colony Count (secondary colonies per well) ([6]; colonies plucked from original cultures with ES-3000 @ 10 μM, 96 well plate, 14 days): 1 | average CFC per well ([6]; original cultures with ES-3000 @ 10 μM): three | P-gp substrate ([7]; Susa 2010): not a substrate of P-gp | reversal of P-glycoprotein-mediated drug resistance [7]: potent and specific activity | abl only ([8]; Primary colonies): 1 | bcr-abl only ([8]; Primary colonies): 1 | both negative ([8]; Primary colonies): 4 | abl only ([8]; Secondary colonies): 1 | bcr-abl only ([8]; Secondary colonies): 0 | both negative ([8]; Secondary colonies): 9 | mean (units) ([9]; 30 uM inhibitor, 10 uM ATP): 3.09 units | units (duplicate reactions) ([9]; 30 uM inhibitor, 10 uM ATP): 2.75 units and 3.43 units | mean (units) ([9]; 30 uM inhibitor, 50 uM ATP): 10.55 units | units (duplicate reactions) ([9]; 30 uM inhibitor, 50 uM ATP): 10.4 units and 10.7 units | mean (units) ([9]; 100 uM inhibitor, 10 uM ATP): 2.87 units | units (duplicate reactions) ([9]; 100 uM inhibitor, 10 uM ATP): 2.5 units and 3.24 units | mean (units) ([9]; 100 uM inhibitor, 50 uM ATP): 7.955 units | units (duplicate reactions) ([9]; 100 uM inhibitor, 50 uM ATP): 8.81 units and 7.1 units | mean (units) ([9]; 250 uM inhibitor, 10 uM ATP): 0.41 units | units (duplicate reactions) ([9]; 250 uM inhibitor, 10 uM ATP): 0.34 units and 0.48 units | β-catenin band ([10]; K562 cells treated with 20 and 40 uM): absent | β-catenin level ([10]; K562 cells, 0 to 40 uM, 24 hours, western blot): lowers the β-catenin level in K562 cells in a dose dependent manner | plasma levels at which QT prolongation might be expected ([11]; subjects, interpretation of hERG IC50): above 249 ng/ml | safety for cardiac conduction-related toxicity (hERG IC50 versus Cmax) ([11]; utilizing Cmax from previous human clinical experience (Oldham 1998, Oldham 2000)): 13 fold
